Patent US10201590B2, “Treatment of ocular disorders with anti-connexin proteins and mimetics” (CoDa Therapeutics, Inc., priority 2005, dated 2019)
“Also recorded” adds a separate entry of the source.

Legend:
connexin hemichannels = target: T1, connexin hemichannels (Rattus norvegicus, UniProt P08050); assay: Blockage of dye (Lucifer Yellow) uptake by cells in spinal cord slices; format: cell-based; details: 500 micromolar peptide, slices incubated four hours, then Lucifer Yellow 30 minutes
T1 construct: leads to the expression of connexin hemichannels; from tissue; host or cells: rat (Wistar p7) spinal cord, 500 micron slices in culture
Procedure: Two functional tests were carried out using peptides. These functional test were (i) blockage of dye (Lucifer Yellow) uptake by cells in spinal cord slices, and (ii) prevention of oedema in spinal cord segments (using connexin 43 specific antisense as a positive control). All peptides used were synthesised by Sigma-Genosys (Australia).
Lucifer Yellow is a small water soluble, fixable, dye able to pass from cell to cell via gap junction channels, but not across the cell membrane. The addition of Lucifer Yellow to the extracellular medium makes it is possible to check for the presence of open gap junction hemichannels. The dye will appear in the cytoplasm of cells which are expressing open channels.
Wistar p7 rats were anesthetized with carbon dioxide and immediately decapitated. The spinal cord was excised and transferred to cold Hank's balanced salt solution (HBSS) at pH 7.4. Excess branch nerves and ligaments were removed and the cord transferred to a manual tissue chopper and a series of 500 micron thick slices cut. The damage caused by the slicing induces connexin 43 upregulation through the entire slice (exacerbated by the gap junction mediated bystander effect), and leads to the expression of connexin hemichannels. Slices were placed onto 3 cm diameter Millipore inserts in 24 well plates and cultured in the presence of mimetic peptides in the media. The final concentration for all 9 peptides tested was 500 micromolar. Controls were; no peptide added, or with 1% ethanol or 1% DMSO added as some peptides were re-dissolved in these compounds (peptides were received lyophilised). Some slices were also treated at this time with connexin 43 specific antisense oligodeoxynucleotides in 30% Pluronic F-127 gel or with gel only, as control experiments.
Slices were incubated for four hours at 37 degrees C., and then 2.5 mg per ml Lucifer Yellow was added to each well for 30 minutes (in the dark). The tissues were then rinsed twice in PBS, with three further 10 minute washes, and the slices fixed with 4% paraformaldehyde. They were then viewed using a Leica TCS4D laser scanning confocal microscope to assess dye uptake into cells, or not.

spinal cord segments = assay: Prevention of oedema (swelling) in cultured spinal cord segments; format: cell-based, rat; details: for % swelling of cord segments: 500 micromolar peptide, 24 hours, control segments 21-23%
Procedure: FIGS. 1A and 1B show rat spinal cord segments 24 hours after placing into organotypic culture. In the control cord (FIG. 1A) significant swelling is observed at the cut ends (dotted lines mark the original cuts).
In both cases, the oedema can be blocked using antisense oligodexoynucleotides (ODNs) which prevent translation of the gap junction protein Connexin 43 (FIG. 1B).
The system described in Example 1 was used to examine the effects of the peptides VDCFLSRPTEKT (SEQ ID NO:35) and SRPTEKTIFII (SEQ ID NO:36) on cultured spinal cord segments to test their ability to block swelling.
The peptide QQPGCENVCYDK (SEQ ID NO:39) was used a negative control because it allowed dye uptake in the slice cultures described above, and was thus believed to not be able to block oedema in the segments. DMSO was again used as an additional control.
5 mm long spinal cord segments were placed in separate wells of a 24 well plate in HBSS. The segments were held to the bottom of the well using a small drop of Superglue. The HBSS was removed and 500 micromolar peptide (final concentration) added to media (no peptide for media alone or DMSO controls). The plates were incubated for 24 hours, the media removed and the tissue fixed with Bouin's fixative for 24 hours. Analysis involved photographing cord segments from above, with Image J used to calculate the total area of the cord segment compared with the area of swelling at the cut ends of the segments. Swelling (oedema) was calculated as (cultured area−original area divided by original area) to give % swelling. Single factor Analysis of Variance was used to determine statistical significance, with cut-off level for significance at p=0.05.
In this case a dose response was determined with final concentration of peptides used at 5, 10, 50 250 and 500 micromolar.

[1] = system: glial fibrillary acidic protein (GFAP) expression; assay: Immunohistochemical analysis of GFAP (astrocytosis) in spinal cord segments; format: cell-based, rat; details: for Area of GFAP label: 24 hours, control 2450
Procedure: Table 7: Areas of GFAP label in images taken in spinal cord 24 hours after slicing. Control cords have high levels of GFAP indicating an inflammatory response and greater bystander effect than the treated segments.

connexin 43 hemichannels = assay: Perinatal sheep model of cerebral ischaemia, i.c.v. infusion of mimetic peptide; format: in vivo
Procedure: The infusion in these animals was continued until 72 h after ischaemia. […] Seizures resolved by approximately 48 h.
Dosages of about 5 μmol/kg brain, 50 μmol/kg and 250 μmol/kg brain weight are also possible. For intravenous (systemic delivery) the effect of log-order increases in plasma concentrations can be used to determine an appropriate dose, starting with loading doses to achieve 0.5 μmol/L (mean fetal blood volume is approximately 350 ml in our perinetal sheep at this age), then 5, 10, 50, 250, 500 and 5000 μM.
A Romney-Suffolk cross fetal sheep was instrumented between 117 to 124 days of gestation (0.85 term) under general anaesthesia as described elsewhere in detail (Gerrits et al, Pediatr Res 57(3):342-6, (2005); Guan et al., Neuroscience 95(3):831-839, (1999); Guan et al., J Cereb Blood Flow Metab 21(5):493-502, (2001); Gunn et al., J Clin Invest 99(2):248-256, (1997), Gunn et al., Pediatrics 102(5):1098-1106, (1998), Gunn et al., Pediatr Res 46(3):274-280, (1999); Roelfsema et al., J Cereb Blood Flow Metab 24(8):877-886, (2004)). Instrumentation included brachial artery and vein catheters, EKG electrodes, an inflatable occluder around a fetal carotid artery (Gunn et al., 1997; Roelfsema et al., 2004), parietal EEG electrodes 5 and 15 mm anterior, and 10 mm lateral to bregma, a pair of electrodes placed lateral to these to measure cortical impedance (a measure of cytotoxic oedema (Gunn et al., 1997) and a 17-mm-long left i.c.v. cannula 4 mm anterior and 6 mm lateral to bregma. The instrumentation was exteriorised to the maternal flank, uterine and abdominal walls closed, and fetal vascular catheters heparinised (20 IU/ml). The maternal wound was infiltrated with a long acting local anaesthetic bupivacaine (100 mg/20 ml).
After 5 days recovery, fetal cerebral hypoperfusion was induced by a 30 minute period of bilateral carotid artery occlusion (Gunn et al., 1997; Roelfsema et al., 2004; Tan et al., Ann Neurol 32(5):677-682, (1992); Tan et al., Pediatr Res 39(5):791-797, (1996)). […]

[2] = near-term fetal sheep, i.c.v. infusion from 90 min after 30 min ischaemia until 72 h

T1 sequence (P08050 2-382): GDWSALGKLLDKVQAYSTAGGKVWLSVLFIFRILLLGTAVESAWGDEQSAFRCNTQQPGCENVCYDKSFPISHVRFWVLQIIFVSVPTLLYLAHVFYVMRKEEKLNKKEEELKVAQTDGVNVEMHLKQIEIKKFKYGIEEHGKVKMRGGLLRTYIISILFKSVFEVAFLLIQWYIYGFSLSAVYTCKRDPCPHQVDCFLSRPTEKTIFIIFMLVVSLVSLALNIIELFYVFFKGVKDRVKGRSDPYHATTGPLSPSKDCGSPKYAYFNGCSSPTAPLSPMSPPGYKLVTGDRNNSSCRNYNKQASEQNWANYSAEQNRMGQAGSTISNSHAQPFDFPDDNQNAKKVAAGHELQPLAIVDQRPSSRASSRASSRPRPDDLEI

FEVAFLLIQWI [connexin 43 mimetic peptide, M3 & E2]
dye (Lucifer Yellow) uptake / block of hemichannels (connexin hemichannels): comparable with control slices

VDCFLSRPTEKT [connexin 43 mimetic peptide, E2]
dye (Lucifer Yellow) uptake / block of hemichannels (connexin hemichannels): block hemichannels
dye (Lucifer Yellow) uptake / block of hemichannels (connexin hemichannels; listed as SEQ ID NO: 35): capable of preventing and/or blocking and/or closing the opening of the hemichannels
% swelling of cord segments (spinal cord segments): 15%

SRPTEKTIFII [connexin 43 mimetic peptide, E2 & M4]
Area of GFAP label ([1]; 5 micromolar): 300 square units
Area of GFAP label ([1]; 50 micromolar): 950 square units
Area of GFAP label ([1]; 250 micromolar): 1000 square units
Area of GFAP label ([1]; 500 micromolar): 750 square units
astrocytosis (GFAP expression) ([1]; 24 hours in culture): reduced astrocytosis
most effective concentration at preventing the inflammatory response (GFAP) ([1]; 24 hours in culture): 5 µM
effect in perinatal sheep experiment (connexin 43 hemichannels; 5 μmol/kg brain weight in 1 ml artificial CSF i.c.v. over one hour, then 1 ml per day for 72 hours): significant effect
cortical impedance (cell swelling, cytotoxic oedema) (connexin 43 hemichannels; [2]): markedly delayed and attenuated rise in cerebral impedance
seizures after cerebral ischaemia (connexin 43 hemichannels; [2]): changed seizures from continuous to a later onset of discrete, separate seizure events
dye (Lucifer Yellow) uptake / block of hemichannels (connexin hemichannels): block hemichannels
dye (Lucifer Yellow) uptake / block of hemichannels (connexin hemichannels; listed as SEQ ID NO: 36): capable of preventing and/or blocking and/or closing the opening of the hemichannels
blocking of oedema at middle range concentration (spinal cord segments; 50 micromolar, repeat experiments): somewhat less effective
% swelling of cord segments (spinal cord segments): 17%
most effective concentration for blocking of oedema (least oedema) (spinal cord segments; dose response 5, 10, 50 250 and 500 micromolar, vs media alone p=0.001): 5 µM

QQPGCENVCYDK [connexin 43 mimetic peptide, E1; used as negative control]
dye (Lucifer Yellow) uptake / block of hemichannels (connexin hemichannels): comparable with control slices; also recorded: did not block hemichannels
% swelling of cord segments (spinal cord segments): 23%

LLIQWYIGFSL [connexin 43 mimetic peptide, E2]
dye (Lucifer Yellow) uptake / block of hemichannels (connexin hemichannels): comparable with control slices

LGTAVESAWGDEQ [connexin 43 mimetic peptide, M1 & E1]
dye (Lucifer Yellow) uptake / block of hemichannels (connexin hemichannels): comparable with control slices

VCYDKSFPISHVR [connexin 43 mimetic peptide, E1]
dye (Lucifer Yellow) uptake / block of hemichannels (connexin hemichannels): comparable with control slices

QSAFRCNTQQPG [connexin 43 mimetic peptide, E1]
dye (Lucifer Yellow) uptake / block of hemichannels (connexin hemichannels): comparable with control slices

SLSAVYTCKRDPCPHQ [connexin 43 mimetic peptide, E2]
dye (Lucifer Yellow) uptake / block of hemichannels (connexin hemichannels): comparable with control slices
